One molecule from PMC8252432 (Angewandte Chemie (International Ed. in English), 2021) can be followed below.

For the data set, the system named is trypsin. The data set is described as follows: Trypsin digestion of Angiotensin III, LC-MS. It is filed as in vitro ADME. The note with it: 10 mM phosphate buffer pH 7.4, no nanoparticle (Figure 1a).

Consider `CC[C@H](C)[C@H](NC(=O)[C@H](Cc1ccc(O)cc1)NC(=O)[C@@H](NC(=O)[C@@H](N)CCCN=C(N)N)C(C)C)C(=O)N[C@@H](Cc1c[nH]cn1)C(=O)N1CCC[C@H]1C(=O)N[C@@H](Cc1ccccc1)C(=O)O` [A‐III, Angiotensin III], for which the “time in which the peptide could be cleaved in buffer” value came out at 120 min.
